We go through two compounds from ChEMBL document CHEMBL3259563, “The discovery of potent and selective non-steroidal glucocorticoid receptor modulators, suitable for inhalation” (Bioorg Med Chem Lett, 2014).

The nature of data set [1]: Lipophilicity, log D of the compound at pH 7.4. The note with it: buffer. Type of data set: physicochemical.
The target of a further data set is T1, Glucocorticoid receptor (Rattus norvegicus, UniProt P06536).
T1 sequence (P06536 whole entry): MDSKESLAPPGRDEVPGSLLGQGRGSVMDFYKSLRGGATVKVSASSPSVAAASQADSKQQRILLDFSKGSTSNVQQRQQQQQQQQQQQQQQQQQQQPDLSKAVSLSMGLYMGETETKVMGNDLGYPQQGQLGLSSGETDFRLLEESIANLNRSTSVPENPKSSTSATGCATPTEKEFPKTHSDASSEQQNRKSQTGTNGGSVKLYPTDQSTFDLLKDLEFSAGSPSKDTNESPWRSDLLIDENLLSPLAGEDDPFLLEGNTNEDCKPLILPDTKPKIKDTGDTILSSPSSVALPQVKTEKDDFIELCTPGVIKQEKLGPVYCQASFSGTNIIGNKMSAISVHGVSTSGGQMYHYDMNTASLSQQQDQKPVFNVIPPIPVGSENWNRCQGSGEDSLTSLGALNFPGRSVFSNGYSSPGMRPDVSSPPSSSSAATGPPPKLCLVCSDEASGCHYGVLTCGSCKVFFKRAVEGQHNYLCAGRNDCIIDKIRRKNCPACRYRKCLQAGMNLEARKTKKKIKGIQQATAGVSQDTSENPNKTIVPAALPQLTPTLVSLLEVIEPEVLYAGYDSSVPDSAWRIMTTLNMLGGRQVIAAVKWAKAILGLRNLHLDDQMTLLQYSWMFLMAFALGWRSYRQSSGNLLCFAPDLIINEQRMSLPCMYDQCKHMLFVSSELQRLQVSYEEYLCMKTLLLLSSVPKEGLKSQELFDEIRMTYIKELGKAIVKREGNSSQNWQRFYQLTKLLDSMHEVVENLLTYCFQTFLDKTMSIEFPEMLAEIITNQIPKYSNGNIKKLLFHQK
In words: Agonist activity at glucocorticoid receptor in rat PBMC assessed as inhibition of LPS-stimulated TNF-alpha release.

In the next data set the target is T2, Androgen receptor (Homo sapiens, UniProt P10275).
T2 sequence (P10275 whole entry): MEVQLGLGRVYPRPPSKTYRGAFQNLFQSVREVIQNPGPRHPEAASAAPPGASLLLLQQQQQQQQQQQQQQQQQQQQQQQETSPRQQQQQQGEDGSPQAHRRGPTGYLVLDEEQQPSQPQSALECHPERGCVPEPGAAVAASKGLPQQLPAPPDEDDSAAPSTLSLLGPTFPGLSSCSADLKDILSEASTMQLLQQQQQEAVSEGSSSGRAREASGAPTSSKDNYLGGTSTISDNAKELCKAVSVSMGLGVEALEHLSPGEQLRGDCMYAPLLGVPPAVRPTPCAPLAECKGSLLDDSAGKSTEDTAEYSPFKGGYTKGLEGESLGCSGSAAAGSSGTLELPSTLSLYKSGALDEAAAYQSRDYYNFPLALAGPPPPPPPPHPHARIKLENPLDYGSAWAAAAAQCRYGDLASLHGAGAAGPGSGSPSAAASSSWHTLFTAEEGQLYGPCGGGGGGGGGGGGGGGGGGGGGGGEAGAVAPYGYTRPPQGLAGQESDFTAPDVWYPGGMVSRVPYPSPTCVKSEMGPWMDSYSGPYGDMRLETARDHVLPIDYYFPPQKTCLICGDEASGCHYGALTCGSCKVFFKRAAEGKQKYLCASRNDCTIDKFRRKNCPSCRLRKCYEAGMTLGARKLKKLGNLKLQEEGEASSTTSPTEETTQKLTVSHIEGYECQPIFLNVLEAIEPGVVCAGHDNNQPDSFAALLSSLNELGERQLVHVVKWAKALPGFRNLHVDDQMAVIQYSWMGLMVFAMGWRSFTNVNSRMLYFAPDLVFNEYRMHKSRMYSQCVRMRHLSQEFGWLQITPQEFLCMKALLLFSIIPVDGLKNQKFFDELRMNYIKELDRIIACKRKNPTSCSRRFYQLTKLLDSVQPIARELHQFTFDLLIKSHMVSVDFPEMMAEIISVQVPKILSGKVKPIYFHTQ
In words: Binding affinity to androgen receptor (unknown origin).

The nature of data set [2]: Thermodynamic solubility of the crystalline compound in 0.1 M phosphate buffer at pH 7.4 at 25 degC after 24 hrs. The note with it: read-out: Therm_solubility. Type of data set: physicochemical.
In another data set the test system is Plasma. In words: Fraction unbound in human plasma. In kind it is ADME, cell-free.
The subject of data set [3] is Hepatocyte. In words: Intrinsic clearance in rat hepatocytes. In kind it is ADME, cell-based.
Data set [4] has as its system Hepatocyte. Nature of the data set: Intrinsic clearance in human hepatocytes. In kind it is ADME, cell-based.
A further data set addresses Cytochrome P450 2D6 (Homo sapiens, UniProt P10635). Nature of the data set: Inhibition of CYP2D6 (unknown origin). In kind it is ADME.
The next data set deals with T3, Cytochrome P450 1A2 (Homo sapiens, UniProt P05177).
T3 sequence (P05177 whole entry): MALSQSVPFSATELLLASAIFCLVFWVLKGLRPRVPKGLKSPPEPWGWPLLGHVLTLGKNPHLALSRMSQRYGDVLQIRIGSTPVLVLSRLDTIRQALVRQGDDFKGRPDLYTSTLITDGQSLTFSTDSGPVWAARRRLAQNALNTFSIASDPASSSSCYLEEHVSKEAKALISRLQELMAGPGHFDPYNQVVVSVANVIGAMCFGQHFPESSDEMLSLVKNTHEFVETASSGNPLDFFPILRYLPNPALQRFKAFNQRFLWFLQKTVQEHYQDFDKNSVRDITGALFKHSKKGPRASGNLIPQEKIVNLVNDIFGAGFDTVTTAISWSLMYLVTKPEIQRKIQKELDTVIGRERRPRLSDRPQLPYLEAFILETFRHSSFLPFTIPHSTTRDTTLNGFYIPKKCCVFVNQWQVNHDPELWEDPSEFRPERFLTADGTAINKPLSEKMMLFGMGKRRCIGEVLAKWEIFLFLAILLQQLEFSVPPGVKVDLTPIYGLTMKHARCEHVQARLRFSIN
In words: Inhibition of CYP1A2 (unknown origin). In kind it is ADME.

The next data set concerns the target Cytochrome P450 2C19 (Homo sapiens, UniProt P33261). Nature of the data set: Inhibition of CYP2C19 (unknown origin). In kind it is ADME.
Another data set has as its target Cytochrome P450 3A4 (Homo sapiens, UniProt P08684). Nature of the data set: Inhibition of CYP3A4 (unknown origin). In kind it is ADME.
Another data set has as its target Cytochrome P450 2C9 (Homo sapiens, UniProt P11712). Nature of the data set: Inhibition of CYP2C9 (unknown origin). Type of data set: ADME.
Another data set deals with Lung. In words: Drug uptake in intratracheally dosed rat lung after 24 hrs. In kind it is ADME, organism-based. The conditions noted are these: in vivo, inhaled_or_intranasal.
The subject of data set [5] is Rattus norvegicus. In words: Antiinflammatory activity in rat assessed as inhibition of LPS-induced leukocyte influx to broncho-alveolar lavage fluid at 10 ug/kg, administered intratracheally 2 hrs prior to LPS challenge measured after 4 hrs relative to control. In kind it is functional. The conditions noted are these: inhaled or nasal.
For data set [6], the system named is Rattus norvegicus. In words: Antiinflammatory activity in rat assessed as inhibition of LPS-induced leukocyte influx to broncho-alveolar lavage fluid at 30 ug/kg, administered intratracheally 2 hrs prior to LPS challenge measured after 4 hrs relative to control. The conditions noted are these: inhaled or nasal. Type of data set: functional.
The subject of data set [7] is Rattus norvegicus. In words: Antiinflammatory activity in rat assessed as inhibition of LPS-induced leukocyte influx to broncho-alveolar lavage fluid at 100 ug/kg, administered intratracheally 2 hrs prior to LPS challenge measured after 4 hrs relative to control. In kind it is functional. The note with it: inhaled or nasal.
In data set [8] the test system is Rattus norvegicus. In words: Antiinflammatory activity in rat assessed as inhibition of LPS-induced lung edema at 10 ug/kg, administered intratracheally 2 hrs prior to LPS challenge measured after 4 hrs relative to control. The conditions noted are these: inhaled or nasal. Type of data set: functional.
Data set [9] has as its system Rattus norvegicus. Nature of the data set: Antiinflammatory activity in rat assessed as inhibition of LPS-induced lung edema at 30 ug/kg, administered intratracheally 2 hrs prior to LPS challenge measured after 4 hrs relative to control. In kind it is functional. The note with it: inhaled or nasal.
In data set [10] the test system is Rattus norvegicus. Nature of the data set: Antiinflammatory activity in rat assessed as inhibition of LPS-induced lung edema at 100 ug/kg, administered intratracheally 2 hrs prior to LPS challenge measured after 4 hrs relative to control. In kind it is functional. The conditions noted are these: inhaled or nasal.
The nature of data set [11]: Thermodynamic solubility of the amorphous compound in 0.1 M phosphate buffer at pH 7.4 at 25 degC after 24 hrs. In kind it is physicochemical. The conditions noted are these: read-out: Therm_solubility.
For the next data set, the target named is hERG (KCNH2) (Homo sapiens, UniProt Q12809). In words: Inhibition of human ERG channel at 50 uM.
The subject of data set [12] is Mus musculus. Nature of the data set: Antiinflammatory activity in mouse acute cigarette smoke model assessed as inhibition of neutrophil influx to broncho-alveolar lavage fluid at 10 ug/kg, administered intratracheally 30 mins prior to first cigarette smoke challenge every day for 4 days measured after 24 hrs post last cigarette smoke challenge relative to control. The note with it: inhaled or nasal.

Data set [13] has as its system Mus musculus. In words: Antiinflammatory activity in mouse acute cigarette smoke model assessed as inhibition of neutrophil influx to broncho-alveolar lavage fluid at 30 ug/kg, administered intratracheally 30 mins prior to first cigarette smoke challenge every day for 4 days measured after 24 hrs post last cigarette smoke challenge relative to control. The note with it: inhaled or nasal.

Data set [14] deals with Mus musculus. Nature of the data set: Antiinflammatory activity in mouse acute cigarette smoke model assessed as inhibition of neutrophil influx to broncho-alveolar lavage fluid at 100 ug/kg, administered intratracheally 30 mins prior to first cigarette smoke challenge every day for 4 days measured after 24 hrs post last cigarette smoke challenge relative to control. The note with it: inhaled or nasal.

The subject of data set [15] is Mus musculus. In words: Antiinflammatory activity in mouse acute cigarette smoke model assessed as inhibition of neutrophil influx to broncho-alveolar lavage fluid at 300 ug/kg, administered intratracheally 30 mins prior to first cigarette smoke challenge every day for 4 days measured after 24 hrs post last cigarette smoke challenge relative to control. The conditions noted are these: inhaled or nasal.

Cytochrome P450 2C19, sequence (P33261 whole entry): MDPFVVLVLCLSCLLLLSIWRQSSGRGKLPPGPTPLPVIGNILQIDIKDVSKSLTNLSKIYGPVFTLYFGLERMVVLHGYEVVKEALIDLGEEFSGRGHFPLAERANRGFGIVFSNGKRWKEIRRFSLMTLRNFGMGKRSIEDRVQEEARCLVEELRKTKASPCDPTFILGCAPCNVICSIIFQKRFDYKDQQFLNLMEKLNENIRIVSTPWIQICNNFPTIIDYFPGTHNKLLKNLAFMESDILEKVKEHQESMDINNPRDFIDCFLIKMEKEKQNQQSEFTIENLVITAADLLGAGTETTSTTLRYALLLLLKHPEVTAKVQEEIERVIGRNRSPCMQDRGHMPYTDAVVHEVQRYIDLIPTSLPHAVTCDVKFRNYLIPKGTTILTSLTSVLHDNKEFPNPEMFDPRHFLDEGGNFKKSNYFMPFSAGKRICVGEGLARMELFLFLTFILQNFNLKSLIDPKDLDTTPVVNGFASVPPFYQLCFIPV
Cytochrome P450 3A4, sequence (P08684 whole entry): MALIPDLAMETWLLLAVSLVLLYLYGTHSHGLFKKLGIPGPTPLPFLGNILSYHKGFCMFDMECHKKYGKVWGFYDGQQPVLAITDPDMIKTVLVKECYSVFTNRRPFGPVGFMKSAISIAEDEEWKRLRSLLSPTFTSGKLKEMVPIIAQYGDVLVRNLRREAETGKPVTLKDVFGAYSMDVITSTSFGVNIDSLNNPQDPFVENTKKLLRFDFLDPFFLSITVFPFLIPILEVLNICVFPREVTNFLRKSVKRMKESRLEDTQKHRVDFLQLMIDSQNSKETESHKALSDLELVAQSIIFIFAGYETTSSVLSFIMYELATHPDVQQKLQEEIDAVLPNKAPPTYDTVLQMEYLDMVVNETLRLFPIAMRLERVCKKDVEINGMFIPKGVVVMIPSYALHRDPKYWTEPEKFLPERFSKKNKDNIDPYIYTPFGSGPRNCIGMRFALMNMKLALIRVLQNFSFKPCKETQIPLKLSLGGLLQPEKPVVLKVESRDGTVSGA
Cytochrome P450 2C9, sequence (P11712 whole entry): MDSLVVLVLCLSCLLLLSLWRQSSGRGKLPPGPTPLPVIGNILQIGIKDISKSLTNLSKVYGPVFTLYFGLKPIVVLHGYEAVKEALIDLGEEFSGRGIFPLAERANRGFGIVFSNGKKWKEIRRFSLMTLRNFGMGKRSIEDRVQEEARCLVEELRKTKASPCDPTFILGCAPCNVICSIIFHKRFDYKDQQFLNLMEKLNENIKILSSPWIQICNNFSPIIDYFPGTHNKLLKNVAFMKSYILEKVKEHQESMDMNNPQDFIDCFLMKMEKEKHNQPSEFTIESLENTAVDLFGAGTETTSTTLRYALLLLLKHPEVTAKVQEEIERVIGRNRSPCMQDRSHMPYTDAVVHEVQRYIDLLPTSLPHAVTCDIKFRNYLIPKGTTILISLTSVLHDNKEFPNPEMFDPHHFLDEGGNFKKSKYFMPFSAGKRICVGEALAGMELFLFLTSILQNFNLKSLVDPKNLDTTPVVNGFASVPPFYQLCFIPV
Cytochrome P450 2D6, sequence (P10635 whole entry): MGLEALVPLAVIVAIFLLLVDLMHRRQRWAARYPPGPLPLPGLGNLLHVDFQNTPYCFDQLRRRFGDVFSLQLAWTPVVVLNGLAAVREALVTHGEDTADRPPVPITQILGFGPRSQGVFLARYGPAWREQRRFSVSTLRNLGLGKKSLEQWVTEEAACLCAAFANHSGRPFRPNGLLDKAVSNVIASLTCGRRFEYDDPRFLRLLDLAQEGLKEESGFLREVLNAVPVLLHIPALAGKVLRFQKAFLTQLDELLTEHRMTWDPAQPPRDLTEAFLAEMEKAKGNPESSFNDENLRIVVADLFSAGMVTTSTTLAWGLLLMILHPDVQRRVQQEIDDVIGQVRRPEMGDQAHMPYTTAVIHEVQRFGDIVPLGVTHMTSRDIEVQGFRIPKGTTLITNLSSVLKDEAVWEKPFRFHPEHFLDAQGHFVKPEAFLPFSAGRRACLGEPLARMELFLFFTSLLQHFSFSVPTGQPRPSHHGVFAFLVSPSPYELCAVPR
hERG (KCNH2), sequence (Q12809 whole entry): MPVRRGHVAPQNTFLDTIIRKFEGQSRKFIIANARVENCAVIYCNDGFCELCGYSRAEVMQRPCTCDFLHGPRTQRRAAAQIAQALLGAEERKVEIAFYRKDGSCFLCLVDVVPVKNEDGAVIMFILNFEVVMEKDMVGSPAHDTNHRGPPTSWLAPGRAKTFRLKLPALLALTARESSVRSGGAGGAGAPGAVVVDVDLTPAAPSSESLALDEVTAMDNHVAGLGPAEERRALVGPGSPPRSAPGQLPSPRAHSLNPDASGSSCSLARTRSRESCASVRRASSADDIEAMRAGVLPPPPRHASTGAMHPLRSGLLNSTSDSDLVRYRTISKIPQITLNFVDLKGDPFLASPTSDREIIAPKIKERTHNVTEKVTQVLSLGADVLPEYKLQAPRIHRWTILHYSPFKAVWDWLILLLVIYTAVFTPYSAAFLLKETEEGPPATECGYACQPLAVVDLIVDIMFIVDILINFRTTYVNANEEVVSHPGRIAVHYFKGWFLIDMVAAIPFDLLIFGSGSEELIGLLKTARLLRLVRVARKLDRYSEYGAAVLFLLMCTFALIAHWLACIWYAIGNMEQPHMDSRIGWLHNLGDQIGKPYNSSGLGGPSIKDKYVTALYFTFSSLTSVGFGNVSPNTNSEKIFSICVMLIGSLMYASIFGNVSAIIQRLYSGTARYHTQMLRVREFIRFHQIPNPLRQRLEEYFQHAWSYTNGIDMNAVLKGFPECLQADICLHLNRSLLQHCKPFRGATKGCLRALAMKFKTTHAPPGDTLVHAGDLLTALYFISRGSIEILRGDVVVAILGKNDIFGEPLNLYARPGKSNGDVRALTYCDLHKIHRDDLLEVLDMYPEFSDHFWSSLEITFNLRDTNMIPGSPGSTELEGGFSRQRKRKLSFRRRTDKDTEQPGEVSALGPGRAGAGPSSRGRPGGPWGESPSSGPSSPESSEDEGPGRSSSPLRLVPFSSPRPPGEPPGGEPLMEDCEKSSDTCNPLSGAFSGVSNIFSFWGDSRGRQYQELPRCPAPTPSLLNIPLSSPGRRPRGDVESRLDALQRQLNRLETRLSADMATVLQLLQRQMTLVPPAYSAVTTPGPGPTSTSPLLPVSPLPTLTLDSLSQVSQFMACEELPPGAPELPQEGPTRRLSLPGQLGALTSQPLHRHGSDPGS

As usually defined, the logD is lipophilicity at a set pH, counting ionised and neutral species. By IC50 is commonly meant the concentration that gives 50% inhibition. The term inhibition in vivo denotes the percentage by which the read-out fell short of the control. Usually inhibition stands for how much of the control response was suppressed. A lower inhibition goes with a weak effect. As to `Cc1cc(C)c(S(=O)(=O)N[C@@H](C)CNc2cccc3c2cnn3-c2ccc(F)cc2)c(C)c1`, the logD in [1] is 4.1. For the same compound, the half-maximal inhibitory concentration (IC50) was 0.0009 µM at Glucocorticoid receptor; > 1 µM at Androgen receptor; > 20 µM against Cytochrome P450 2D6; > 20 µM against Cytochrome P450 1A2; > 20 µM against Cytochrome P450 2C19; 10 µM against Cytochrome P450 3A4. Moreover, the IC50 on Cytochrome P450 2C9 was 7.9 µM. The solubility thermodynamic at 24 h in data set [2] was < 0.2 µM; in [11] it was < 0.43 µM. Further, the Fu with Plasma is given as < 0.003%. Moreover, the CLH in the data set with Hepatocyte [3] turned out to be 13 µL/min; with Hepatocyte [4], 18 µL/min. Moreover, the Drug uptake with Lung was determined as 50%. For the same compound, the inhibition in vivo at 0.01 mg/kg in the data set on Rattus norvegicus [5] turned out to be 37%; in the data set on Rattus norvegicus [8] it was 32%; in the data set with Mus musculus [12], 0%. Further, the inhibition in vivo at 0.03 mg/kg in the data set with Rattus norvegicus [6] was 90%; in the data set with Rattus norvegicus [9], 42%; in the data set with Mus musculus [13], 36%. Moreover, the inhibition in vivo at 0.1 mg/kg in the data set with Rattus norvegicus [7] was 85%; in the data set on Rattus norvegicus [10], 56%; in the data set on Mus musculus [14] it was 23%. At hERG (KCNH2), the inhibition at 50 µM is < 25%.

For the compound `CCCC1O[C@@H]2C[C@H]3[C@@H]4CCC5=CC(=O)C=C[C@]5(C)[C@H]4[C@@H](O)C[C@]3(C)[C@]2(C(=O)CO)O1` (stereo not given in full) [BUDESONIDE], in the data set on Mus musculus [15], the inhibition in vivo at 0.3 mg/kg amounted to 38%.
